Seven compounds from patent US20240307361A1, “METHOD FOR DIAGNOSING AND TREATING IRRITABLE BOWEL SYNDROME” (Centre for Chinese Herbal Medicine Drug Development Limited, priority 2023, published 2024) can be followed below.

The test system of data set [1] is QGP-1 cells. The data set can be described thus: 5-HT production in QGP-1 cells. The data set is classed as cell-based, human. As to conditions: 25-200 μM, 24 hours, FIG. 10D-E. The protocol:
(§1) QGP-1 cells were cultured in RPMI 1640 medium supplemented with 10% fetal bovine serum (FBS). QGP-1 is a human pancreatic endocrine cell line that produces 5-HT. To evaluate the effects of phenylalanine, phenethylamine, and phenylacetic acid on 5-HT production, QGP-1 cells were treated with or without phenylalanine, phenethylamine, and phenylacetic acid at the indicated concentrations and times.
(§2) An Agilent 1290 Infinity II UPLC system coupled to a triple quadrupole (QQQ) 6470 mass spectrometer was used for targeted metabolomics profiling. A Waters BEH 2.1×50 mm C18 1.7 μm column with a pre-column was used. The mobile phase used in LC-MS-QQQ was solution A (water with 0.1% formic acid) and solution B (acetonitrile with 0.1% formic acid). The gradients were set as 2% B (0-0.5 min), 2%-30% B (0.5-4 min), […] B (4-6 min), 100% B (6-8 min), 100%-2% B (8-8.1 min) and maintain in 2% B (8.1-10 min). The MS data were collected and processed using Agilent software. The standard list, MRM transition, fragmentor, and collision energy are listed in (Table 3).

Data set [2] deals with 5-HT production. The data set can be described thus: Oral phenethylamine/tryptamine administration in mice: 5-HT levels, GI transit, fecal water content. The data set is classed as in vivo, mouse. To be noted: for GI transit / fecal water content / serum and intestinal 5-HT levels: mice, oral administration, 2, 5 and 10 mg/kg, p<0.01. On the procedure:
as §2
(§3) To study phenethylamine and tryptamine effects on 5-HT production, phenethylamine and tryptamine at a dosage of 2 mg/kg, 5 mg/kg and 10 mg/kg (dissolved in 0.5% CMC-Na, sodium carboxymethyl cellulose) were administered to mice by oral gavage. Mice treated with/without phenethylamine and tryptamine were sacrificed under isoflurane anesthesia. Biological samples including serum, duodenum, ileum, proximal colon and distal colon tissues and luminal contents in each intestinal segments were collected at indicated dosages and times and stored at −80° C. until analysis.
(§4) For the fecal pellet water content test, 1.5 mL Eppendorf tubes were pre-weighed and used to collect fecal pellets from mice immediately after defecation. The tubes were then closed to measure wet weight. Afterward, the tubes were opened and placed in an oven at 60° C. overnight to measure the dry weight. Fecal pellet water content was measured by subtracting the dry weight from the wet weight and normalizing it to the wet pellet mass. Fecal pellets from mice were also counted within 2 h of the defecation frequency test.
(§5) Carmine red assay: Mice were administered 300 μL of 6% carmine red solution (prepared by 0.5% methylcellulose) by oral gavage to measure the GI transit time after treatment with phenethylamine at the indicated dosages. The mice were placed on white sheet paper to track the red pellet in their cages after oral gavage. The total time taken for the appearance of the first red pellet after oral gavage was recorded as gut transit time.

The subject of data set [3] is mouse intestinal tissues. The experiment in a line: 5-HT production in mouse intestinal tissues cultured ex vivo. It counts as cell-based. To be noted: 25 μM and 50 μM, p<0.05, FIG. 4A-B. On the procedure: (§6) Mouse and human colonic tissues were collected as previously described. To investigate the effects of phenethylamine on 5-HT levels in mouse and human colon tissues, the colonic tissues were cut into small pieces (0.5 cm) and placed in a 12-well cell culture plate. Colon pieces were added to DMEM/F12 medium containing 5% fetal bovine serum, penicillin-streptomycin (1×), and gentamycin (20 μg/ml), followed by treatment with phenethylamine and EPPTB, as indicated. Colon pieces were incubated at 37° C. with 5% CO2 and 95% air. A 200 μL volume of medium was collected from each well at the indicated time points for the analysis of 5-HT.
as §2

For data set [4], the system named is human colonic tissues. The experiment in a line: 5-HT production in human colonic tissues cultured ex vivo. The data set is classed as cell-based. To be noted: 50 μM, p<0.05, FIG. 10A. The protocol:
as §6, §2

Data set [5] deals with T1, 5-HTR4 (Homo sapiens, UniProt Q13639).
T1 construct: endogenous in cells; host or cells: QGP-1
T1 sequence (Q13639 whole entry): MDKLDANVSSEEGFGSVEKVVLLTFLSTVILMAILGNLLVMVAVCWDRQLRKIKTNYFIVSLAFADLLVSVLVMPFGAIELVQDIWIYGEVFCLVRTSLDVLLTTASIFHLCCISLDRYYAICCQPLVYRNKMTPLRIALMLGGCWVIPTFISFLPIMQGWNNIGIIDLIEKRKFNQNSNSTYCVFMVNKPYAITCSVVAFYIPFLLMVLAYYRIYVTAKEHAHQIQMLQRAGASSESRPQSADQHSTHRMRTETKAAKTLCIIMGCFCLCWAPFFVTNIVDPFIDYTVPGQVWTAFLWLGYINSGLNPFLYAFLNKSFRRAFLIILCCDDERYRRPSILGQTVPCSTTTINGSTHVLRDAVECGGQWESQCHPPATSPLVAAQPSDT
The experiment in a line: 5-HTR4 antagonist Piboserod on phenethylamine/tryptamine-stimulated 5-HT in QGP-1 cells. It counts as cell-based. To be noted: 24 hours, FIG. 11M. The protocol: as §1

Data set [6] in a line: Phenethylamine level in intestinal tissues and luminal content after oral gavage. The data set is classed as in vivo, mouse. To be noted: for concentration at 0 min / concentration at 15 min / concentration at 30 min: mouse, oral. The protocol: as §2, §3
Data set [7] addresses T2, TAAR1 (Mus musculus, UniProt Q923Y8).
T2 construct: is expressed in EC cells in the GI tract; from tissue; host or cells: living mice (conventional, antibiotic-treated, or wild-type littermates of Taar1 KO, C57Bl/6J)
The experiment in a line: Phenethylamine in Taar1-/- mice and wild-type littermates. It counts as in vivo. To be noted: Taar1-/- mice vs wild-type littermates, phenethylamine 10 mg/kg, p<0.05. On the procedure:
as §4, §5
Taar1 (NM_053205) knockout mouse model (C57Bl/6J) was generated by CRISPR/Cas-mediated genome engineering. All the Taar1 KO mice and their wildtype littermates were genotyped using PCR and Southern blot [F1: […] (SEQ ID NO:3), R1: […] (SEQ ID NO:4), R2: […] (SEQ ID NO:5)]. The product size of F1 and R1 is 989 bp while the product size of F1 and R2 is 625 bp. […]

Data set [8] concerns PKA and CaMKII. The experiment in a line: Western blot of PKA and CaMKII phosphorylation in colonic tissues of phenethylamine-treated mice. It counts as in vivo, mouse. To be noted: colonic tissues of mice, 2, 5 and 10 mg/kg, p<0.05. The protocol: as §3
Colonic tissues were lysed in RIPA buffer containing protease inhibitor cocktails in a tissuelyzer. The tissue lysates were centrifuged at 15,000 rpm for 15 min at 4° C. and quantified by BCA kit for protein concentration. The protein content normalized supernatant was mixed with 5× loading buffer and heated at 98° C. in a dry bath for 10 min. The samples were evaluated according to the western blotting protocol (Abcam). The blots were incubated with HRP-conjugated anti-rabbit IgG or anti-mouse IgG and reacted with enhanced chemiluminescence.
(In general: Immunoblotting shows a protein as a band on a membrane.)

Setting [9] is: serum of phenethylamine-treated mice, FIG. 5A.

T2 sequence (Q923Y8 whole entry): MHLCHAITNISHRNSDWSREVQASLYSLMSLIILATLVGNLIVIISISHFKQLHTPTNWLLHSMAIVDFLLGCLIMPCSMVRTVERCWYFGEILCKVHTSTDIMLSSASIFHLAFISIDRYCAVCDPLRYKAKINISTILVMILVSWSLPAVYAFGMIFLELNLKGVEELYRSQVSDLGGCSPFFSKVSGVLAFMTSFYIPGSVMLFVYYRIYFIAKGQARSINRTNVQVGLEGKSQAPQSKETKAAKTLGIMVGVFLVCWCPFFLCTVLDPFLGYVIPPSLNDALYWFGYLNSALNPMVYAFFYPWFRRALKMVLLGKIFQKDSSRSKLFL

With `N[C@@H](Cc1c[nH]c2ccccc12)C(=O)O` [tryptophan], in data set [1], the “5-HT levels in QGP-1 cells (precursors and metabolites)” value was “did not change the 5-HT levels”.
The same measure, in the same setting: then `N[C@@H](Cc1ccccc1)C(=O)O` [phenylalanine], with “did not change the 5-HT levels”.
On the same count and under the same terms, the result for `O=C(O)Cc1ccccc1` [phenylacetic acid] reads “did not change the 5-HT levels”.
Take `NCCc1c[nH]c2ccccc12` [tryptamine]: in data set [2], the GI transit entry was “accelerated GI transit”; the fecal water content entry is recorded as “increased fecal water content”; the “serum and intestinal 5-HT levels” value is “significantly elevated serum and intestinal 5-HT levels”. Also, in data set [3], the “5-HT production in mouse intestinal tissues” value is recorded as “significantly enhanced 5-HT production”. The “5-HT production in human colonic tissues” value in data set [4] was “significantly enhanced 5-HT production”.
As for `CCCCN1CCC(CNC(=O)c2c3n(c4ccccc24)CCCO3)CC1` [Piboserod], in data set [5], the “5-HT levels stimulated by phenethylamine or tryptamine” value is recorded as “did not restore 5-HT levels” and the “tryptamine-stimulated 5-HT production” value was “modest reduction of tryptamine-stimulated 5-HT production”.
On to `NCCc1ccccc1` [phenethylamine], for which the “Phenethylamine level, Concentration” value stood at 1082 µg/g in data set [6] (Duodenum, 15 min); 1245 µg/g in data set [6] (Luminal content in duodenum, 15 min); 1200 µg/g in data set [6] (Luminal content in duodenum, 30 min). The concentration at 0 min in data set [6] (luminal content of duodenum, Luminal content in duodenum) turned out to be 3000 ng/g; in data set [6] (luminal content of ileum, Luminal content in ileum), 1670 ng/g; in data set [6] (luminal content of proximal colon, Luminal content in proximal colon), 3700 ng/g; in data set [6] (Duodenum), 230 ng/g; in data set [6] (Ileum), 240 ng/g; in data set [6] (Proximal colon), 12000 ng/g. The concentration at 15 min was determined as 29700 ng/g in data set [6] (luminal content of ileum, Luminal content in ileum, 15 min); 112000 ng/g in data set [6] (luminal content of proximal colon, Luminal content in proximal colon, 15 min); 24000 ng/g in data set [6] (Ileum, 15 min); 116000 ng/g in data set [6] (Proximal colon, 15 min). The concentration at 30 min in data set [6] (luminal content of ileum, Luminal content in ileum, 30 min) was 9300 ng/g; in data set [6] (luminal content of proximal colon, Luminal content in proximal colon, 30 min) it was 58900 ng/g; in data set [6] (Duodenum, 30 min) it was 879000 ng/g; in data set [6] (Ileum, 30 min), 8000 ng/g; in data set [6] (Proximal colon, 30 min), 38000 ng/g. The “circulating 5-HTP levels” value in data set [2] (mice, 2, 5 and 10 mg/kg, FIG. 11A-C) is “increase in circulating 5-HTP levels in mice in a dose-dependent manner”. Also, the GI transit result in data set [2] is “accelerated GI transit”. In addition, the fecal water content result in data set [2] is recorded as “increased fecal water content”. Further, in data set [2], the “serum and intestinal 5-HT levels” value was “significantly elevated serum and intestinal 5-HT levels”. Besides, the 5-HIAA/5-HT ratio entry in data set [2] (setting [9]) is “but not the 5-HIAA/5-HT ratio, were increased”. Also, in data set [2] (setting [9]), the 5-HT/5-HTP ratio entry is recorded as “increased”. Further, the 5-HTP/Trp ratio entry in data set [2] (setting [9]) is given as “increased”. For the same compound, in data set [7], the “phenethylamine-induced changes in 5-HT production, GI transit and secretion under genetic ablation of TAAR1” value is “abolished phenethylamine-induced changes in 5-HT production, GI transit, and secretion”. In data set [3], the “5-HT production in mouse intestinal tissues” value is reported as “significantly enhanced 5-HT production”. Moreover, the “5-HT production in human colonic tissues” value in data set [4] was “significantly enhanced 5-HT production”. For the same compound, the “phosphorylation of PKA and CaMKII” value in data set [8] is listed as “an increase in the phosphorylation of these proteins”.
As to indole acetic acid, the “5-HT levels in QGP-1 cells (precursors and metabolites)” value in data set [1] is “did not change the 5-HT levels”.
